Results published in patent publication US20240391965A1, “STAPLED ANTIMICROBIAL PEPTIDES (STAMPS) AND USES THEREOF” (Lytica Therapeutics, Inc., priority 2021, published 2024).
In brackets after ≈: the same amount, converted by molar mass. Starred links: 1 amine or outer side, 2 acyl side, 3 side chain; linkers in the order of their positions; H or OH if unused. Positions of bridges follow the written chain, without caps; N, C: chain ends. Residues, ends and D or L forms follow the SMILES beside them. 2,2'Bipyridine(5,5'-diCH2) = c1cc(-c2ccc(C[*:2])cn2)ncc1C[*:1]; Biphenyl(4,4'-CH2)2 = c1cc(-c2ccc(C[*:2])cc2)ccc1C[*:1]; mXylylene = c1cc(C[*:1])cc(C[*:2])c1; pXylylene = c1cc(C[*:2])ccc1C[*:1]; X1 = C(=CC[*:2])C[*:1]

Legend:
[1] = 48 hours cytotoxicity assay (CellTiter-Glo), liver toxicity; format: cell-based, human
Excerpt: (§1) In some embodiments, a peptide provided herein has hepatic toxicity that is at least 10% (e.g., at least 15%, at least 20%, at least 25%, at least 30%, at least 35%, at least 40%, at least 45%, at least 50%, at least 55%, at least 60%, at least 65%, at least 65%, at least 70%, at least 75%, at least 80%, at least 85%, at least 90%, at least 95%, at least 99%) lower than the hepatic toxicity of the reference. The hepatic toxicity of a peptide can be measured in vitro using a human liver cells (e.g., HepG2) toxicity assay.
(§2) Cell culture: RPTEC were maintained in MEM media supplemented with growth factors. HEPG2 cell line was maintained in Eagle's Minimum Essential Medium (EMEM) supplemented with fetal bovine serum to a final concentration of 10%.
48 hours cytotoxicity assay: Cells were plated in a 96-well format, and after 4 hour incubation to allow attachment, serial dilutions of StAMPs from a 5 mg/mL water stock, or vehicle, were then added to the cells in a final volume of 100 μl. After incubating at 37° C. for 48 hours, 100 μl of CellTiter-Glo® reagent was added to the cells, and the plates were incubated 10 minutes at room temperature. Luminescence was then measured on a microplate reader.
(§3) Renal toxicity was measured after 90 minutes of incubation, while liver toxicity was measured after 48 hours of incubation with StAMPs. N/A=not tested.

[2] = 90 minute cytotoxicity assay (LDH release), renal toxicity; format: cell-based
Excerpt: as §1, with “renal” for “hepatic”, “renal proximal tubule epithelial cell (RPTEC) renal” for “human liver cells (e.g., HepG2)”
as §2
90 minute cytotoxicity assay: Cells were plated in a 96-well format, and after overnight incubation, media was replaced with fresh media. Serial dilutions of StAMPs from a 5 mg/mL water stock, or vehicle, were added to the cells in a final volume of 100 μl. After incubating at 37° C. for 90 min, 50 μl of cell culture media was transferred to a clear 96-well plate, incubated with 50 μl of lactate dehydrogenase (LDH) assay reagent for 10 min, and absorbance measured at 490 nm on a microplate reader.
as §3

[3] = 48 hours of incubation, CellTiter-Glo, read-out: Inhibitory Concentration at 50% Cytotoxicity (IC50) Human Liver Cells (HepG2)

SMILES | IC50 [1] | IC50 [2] | further results
CC[C@H](C)[C@H](NC(=O)CN)C(=O)N[C@@H](Cc1ccccc1)C(=O)N[C@@H](CO)C(=O)N[C@@H](CCCCN)C(=O)N[C@H]1CSCC=CCSC[C@@H](C(=O)N[C@H](C(=O)N[C@@H](CCCCN)C(=O)N[C@@H](CC(N)=O)C(=O)N[C@@H](CC(C)C)C(=O)N[C@@H](CC(C)C)C(=O)N[C@H](C(=O)N[C@@H](CO)C(=O)NCC(=O)N[C@@H](CC(C)C)C(=O)N[C@@H](CCCCN)C(=O)NCC(N)=O)[C@@H](C)CC)[C@@H](C)CC)NC(=O)[C@H](CCCCN)NC(=O)CNC(=O)[C@H](C)NC1=O [compound 9] (H-GIFSKCAGKCIKNLLISGLKG-NH2; linker 6-10 via X1; N-terminus assumed) | 39 µg/mL (≈ 17.7 µM) | > 200 µg/mL | 
CC[C@H](C)[C@H](NC(=O)CN)C(=O)N[C@@H](Cc1ccccc1)C(=O)N[C@H]1CSCC=CCSC[C@@H](C(=O)N[C@@H](CCCCN)C(=O)N[C@@H](CCCCN)C(=O)N[C@H](C(=O)N[C@@H](CCCCN)C(=O)N[C@@H](CC(N)=O)C(=O)N[C@@H](CC(C)C)C(=O)N[C@@H](CC(C)C)C(=O)N[C@H](C(=O)N[C@@H](CO)C(=O)NCC(=O)N[C@@H](CC(C)C)C(=O)N[C@@H](CCCCN)C(=O)NCC(N)=O)[C@@H](C)CC)[C@@H](C)CC)NC(=O)[C@H](C)NC(=O)[C@H](CC(C)C)NC(=O)[C@H](CCCCN)NC1=O [compound 7] (H-GIFCKLACKKIKNLLISGLKG-NH2; linker 4-8 via X1; N-terminus assumed) | 51 µg/mL (≈ 22.2 µM) | 62 µg/mL (≈ 27 µM) | 
CC[C@H](C)[C@H](NC(=O)CN)C(=O)N[C@@H](Cc1ccccc1)C(=O)N[C@@H](CO)C(=O)N[C@@H](CCCCN)C(=O)N[C@H]1CSCc2ccc(cc2)-c2ccc(cc2)CSC[C@@H](C(=O)N[C@@H](CC(C)C)C(=O)N[C@@H](CC(C)C)C(=O)N[C@H](C(=O)N[C@@H](CO)C(=O)NCC(=O)N[C@@H](CC(C)C)C(=O)N[C@@H](CCCCN)C(=O)NCC(N)=O)[C@@H](C)CC)NC(=O)[C@H](CCCCN)NC(=O)[C@H]([C@@H](C)CC)NC(=O)[C@H](CCCCN)NC(=O)[C@H](CCCCN)NC(=O)CNC(=O)[C@H](C)NC1=O [compound 65] (H-GIFSKCAGKKIKCLLISGLKG-NH2; linker 6-13 via Biphenyl(4,4'-CH2)2; N-terminus assumed) | 13 µg/mL (≈ 5.55 µM) | 15 µg/mL (≈ 6.4 µM) | 
CC[C@H](C)[C@H](NC(=O)CN)C(=O)N[C@@H](Cc1ccccc1)C(=O)N[C@@H](CO)C(=O)N[C@@H](CCCCN)C(=O)N[C@@H](CC(C)C)C(=O)N[C@@H](C)C(=O)NCC(=O)N[C@@H](CCCCN)C(=O)N[C@@H](CCCCN)C(=O)N[C@H](C(=O)N[C@@H](CCCCN)C(=O)N[C@@H](CC(N)=O)C(=O)N[C@@H](CC(C)C)C(=O)N[C@@H](CC(C)C)C(=O)N[C@H](C(=O)N[C@H]1CSCC=CCSC[C@@H](C(N)=O)NC(=O)[C@H](CCCCN)NC(=O)[C@H](CC(C)C)NC(=O)CNC1=O)[C@@H](C)CC)[C@@H](C)CC [compound 35] (H-GIFSKLAGKKIKNLLICGLKC-NH2; linker 17-21 via X1; N-terminus assumed) | ~200 µg/mL (≈ 87 µM) | ~200 µg/mL (≈ 87 µM) | 
CC[C@H](C)[C@H](NC(=O)CN)C(=O)N[C@@H](Cc1ccccc1)C(=O)N[C@@H](CO)C(=O)N[C@@H](CCCCN)C(=O)N[C@@H](CC(C)C)C(=O)N[C@@H](C)C(=O)NCC(=O)N[C@@H](CCCCN)C(=O)N[C@H]1CSCc2ccc(cc2)-c2ccc(cc2)CSC[C@@H](C(=O)NCC(=O)N[C@@H](CC(C)C)C(=O)N[C@@H](CCCCN)C(=O)NCC(N)=O)NC(=O)[C@H]([C@@H](C)CC)NC(=O)[C@H](CC(C)C)NC(=O)[C@H](CC(C)C)NC(=O)[C@H](CC(N)=O)NC(=O)[C@H](CCCCN)NC(=O)[C@H]([C@@H](C)CC)NC1=O [compound 74] (H-GIFSKLAGKCIKNLLICGLKG-NH2; linker 10-17 via Biphenyl(4,4'-CH2)2; N-terminus assumed) |  | 4 µg/mL (≈ 1.7 µM) | 
CC[C@H](C)[C@H](NC(=O)CN)C(=O)N[C@@H](Cc1ccccc1)C(=O)N[C@@H](CO)C(=O)N[C@@H](CCCCN)C(=O)N[C@@H](CC(C)C)C(=O)N[C@H]1CSCc2cccc(c2)CSC[C@@H](C(=O)N[C@@H](CCCCN)C(=O)N[C@@H](CC(N)=O)C(=O)N[C@@H](CC(C)C)C(=O)N[C@@H](CC(C)C)C(=O)N[C@H](C(=O)N[C@@H](CO)C(=O)NCC(=O)N[C@@H](CC(C)C)C(=O)N[C@@H](CCCCN)C(=O)NCC(=O)O)[C@@H](C)CC)NC(=O)[C@H](CCCCN)NC(=O)[C@H](CCCCN)NC(=O)CNC1=O [compound 91] (H-GIFSKLCGKKCKNLLISGLKG-OH; linker 7-11 via mXylylene; N-terminus assumed) |  | > 200 µg/mL | 
CC[C@H](C)[C@H](NC(=O)CN)C(=O)N[C@@H](Cc1ccccc1)C(=O)N[C@@H](CO)C(=O)N[C@H]1CSCc2ccc(nc2)-c2ccc(cn2)CSC[C@@H](C(=O)N[C@@H](CC(N)=O)C(=O)N[C@@H](CC(C)C)C(=O)N[C@@H](CC(C)C)C(=O)N[C@H](C(=O)N[C@@H](CO)C(=O)NCC(=O)N[C@@H](CC(C)C)C(=O)N[C@@H](CCCCN)C(=O)NCC(N)=O)[C@@H](C)CC)NC(=O)[C@H]([C@@H](C)CC)NC(=O)[C@H](CCCCN)NC(=O)[C@H](CCCCN)NC(=O)CNC(=O)[C@H](C)NC(=O)[C@H](CC(C)C)NC1=O [compound 60] (H-GIFSCLAGKKICNLLISGLKG-NH2; linker 5-12 via 2,2'Bipyridine(5,5'-diCH2)) |  |  | IC50 [1, 3]: 29 µg/mL (≈ 12.5 µM)
CC[C@H](C)[C@H](NC(=O)CN)C(=O)N[C@@H](Cc1ccccc1)C(=O)N[C@@H](CO)C(=O)N[C@@H](CCCCN)C(=O)N[C@H]1CSCc2ccc(nc2)-c2ccc(cn2)CSC[C@@H](C(=O)N[C@@H](CC(C)C)C(=O)N[C@@H](CC(C)C)C(=O)N[C@H](C(=O)N[C@@H](CO)C(=O)NCC(=O)N[C@@H](CC(C)C)C(=O)N[C@@H](CCCCN)C(=O)NCC(N)=O)[C@@H](C)CC)NC(=O)[C@H](CCCCN)NC(=O)[C@H]([C@@H](C)CC)NC(=O)[C@H](CCCCN)NC(=O)[C@H](CCCCN)NC(=O)CNC(=O)[C@H](C)NC1=O [compound 63] (H-GIFSKCAGKKIKCLLISGLKG-NH2; linker 6-13 via 2,2'Bipyridine(5,5'-diCH2)) |  |  | IC50 [1, 3]: 44 µg/mL (≈ 18.8 µM)
CC[C@H](C)[C@H](NC(=O)CN)C(=O)N[C@@H](Cc1ccccc1)C(=O)N[C@@H](CO)C(=O)N[C@@H](CCCCN)C(=O)N[C@@H](CC(C)C)C(=O)N[C@H]1CSCc2ccc(cc2)CSC[C@@H](C(=O)N[C@@H](CCCCN)C(=O)N[C@@H](CC(N)=O)C(=O)N[C@@H](CC(C)C)C(=O)N[C@@H](CC(C)C)C(=O)N[C@H](C(=O)N[C@H]2CSCc3ccc(cc3)CSC[C@@H](C(N)=O)NC(=O)[C@H](CCCCN)NC(=O)[C@H](CC(C)C)NC(=O)CNC2=O)[C@@H](C)CC)NC(=O)[C@H](CCCCN)NC(=O)[C@H](CCCCN)NC(=O)CNC1=O [compound 90] (H-GIFSKLCGKKCKNLLICGLKC-NH2; linker 7-11, 17-21 via pXylylene; N-terminus assumed) |  |  | IC50 ([2]; 90 minutes of incubation, LDH release, read-out: Inhibitory Concentration at 50% Cytotoxicity (IC50) Human Renal Proximal Tubule Epithelial Cells (RPTEC)): > 200 µg/mL
CC[C@H](C)[C@H](NC(=O)CN)C(=O)N[C@@H](Cc1ccccc1)C(=O)N[C@@H](CO)C(=O)N[C@@H](CCCCN)C(=O)N[C@@H](CC(C)C)C(=O)N[C@@H](C)C(=O)NCC(=O)N[C@@H](CCCCN)C(=O)N[C@@H](CCCCN)C(=O)N[C@H](C(=O)N[C@H]1CSCc2ccc(cc2)-c2ccc(cc2)CSC[C@@H](C(=O)N[C@@H](CCCCN)C(=O)NCC(N)=O)NC(=O)CNC(=O)[C@H](CO)NC(=O)[C@H]([C@@H](C)CC)NC(=O)[C@H](CC(C)C)NC(=O)[C@H](CC(C)C)NC(=O)[C@H](CC(N)=O)NC1=O)[C@@H](C)CC [compound 79] (H-GIFSKLAGKKICNLLISGCKG-NH2; linker 12-19 via Biphenyl(4,4'-CH2)2; N-terminus assumed) | 50 µg/mL (≈ 21.5 µM) |  | 
CC[C@H](C)[C@H](NC(=O)[C@H](CC(C)C)NC(=O)[C@H](CC(C)C)NC(=O)[C@H](CC(N)=O)NC(=O)[C@H](CCCCN)NC(=O)[C@@H](NC(=O)[C@H](CCCCN)NC(=O)[C@H](CCCCN)NC(=O)CNC(=O)[C@H](C)NC(=O)[C@@H]1CSCC=CCSC[C@H](NC(=O)CN)C(=O)N[C@@H](Cc2ccccc2)C(=O)N[C@@H](CO)C(=O)N[C@@H](CCCCN)C(=O)N1)[C@@H](C)CC)C(=O)N[C@@H](CO)C(=O)NCC(=O)N[C@@H](CC(C)C)C(=O)N[C@@H](CCCCN)C(=O)NCC(N)=O [compound 48] (H-GCFSKCAGKKIKNLLISGLKG-NH2; linker 2-6 via X1; N-terminus assumed) | > 800 µg/mL |  | 
